Laboratory results as given in patent publication US20250101052A1, “COMPOUND FOR EGFR KINASE INHIBITOR, COMPOSITION, AND USE THEREOF” (INNOVATION INSTITUTE FOR ARTIFICIAL INTELLIGENCE IN …, priority 2021, published 2025).

How the values were obtained:
[1] = tested on: BaF3-EGFR^L858R/C797S cells; test: BaF3 cell proliferation inhibition experiment (CCK-8); format: cell-based; details: Ba/F3 EGFR-L858R, 72 h, read-out: BaF3-EGFR^L858R/C797S (IC50 nM)
[2] = tested on: BaF3-EGFR^del19/C797S cells; test: as above; format: cell-based; details: Mus musculus, BaF3, 72 h, read-out: BaF3-EGFR^del19 /C797S (IC50 nM)
Aurora B = Aurora B (Homo sapiens (Human), UniProt Q96GD4); test: Activity of other kinases: Aurora B (HTRF); format: biochemical
Chain of Aurora B (Q96GD4 whole entry): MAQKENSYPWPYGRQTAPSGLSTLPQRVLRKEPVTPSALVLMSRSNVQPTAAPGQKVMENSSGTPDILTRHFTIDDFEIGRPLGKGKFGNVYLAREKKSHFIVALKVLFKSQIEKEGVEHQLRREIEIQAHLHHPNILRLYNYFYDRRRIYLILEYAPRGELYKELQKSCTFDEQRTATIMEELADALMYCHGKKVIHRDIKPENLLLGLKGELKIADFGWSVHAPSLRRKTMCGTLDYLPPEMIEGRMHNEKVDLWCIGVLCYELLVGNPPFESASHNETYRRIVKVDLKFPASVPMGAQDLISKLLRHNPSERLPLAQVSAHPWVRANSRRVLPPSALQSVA
Protocol: Embodiment 5 Activity of Other Kinases
(1) Preparation of 1×kinase reaction buffer:
1 time the volume of 5×kinase reaction buffer and 4 times the volume of water; 5 mM MgCl2; 1 mM DTT.
(2) Screening of Compounds:
a) The compound was diluted with DMSO in a dilution plate.
b) The compound was diluted 40 times into the 1× kinase reaction buffer and oscillated on an oscillator for 20 minutes.
c) 2× was prepared using a 1× enzyme reaction buffer.
d) 2 μL of kinase was added to each well of the reaction plate.
e) 1 μL of the compound diluted in the buffer was added to each well, and the plate was sealed with a sealing film, centrifuged at 1000 rpm for 60 seconds and incubated at 25° C. for 10 minutes.
f) A mixture of 2.5×S2 &TK-substrate-biotin and ATP was prepared using the 1× enzyme reaction buffer, and 2 μL of the S2 &TK-substrate-biotin/ATP mixture was added to the reaction plate.
G) The plate was sealed with a sealing film, centrifuged at 1000 rpm for 60 seconds and incubated at 25° C. for 50&40&30&20 minutes.
h) 4× Sa-XL 665 was prepared using an HTRF detection buffer.
i) 5 μL of Sa-XL 665 and 5 μL of STK/TK-antibody-Cryptate were added to each well, centrifugation was conducted at 1000 rpm for 60 seconds, and incubation was conducted at 25° C. for 1 hour.
j) The fluorescence signals at 615 nm (Cryptate) and 665 nm (XL665) were read using the BGM microplate reader.

Compound	IC50 [1] [nM]	IC50 [2] [nM]	IC50 (Aurora B) [nM]
CCc1cc(Nc2ncc(Cl)c(Nc3ccc(C)c(C)c3P(C)(C)=O)n2)c(OC)cc1N1CCC(N2C[C@H]3CC[C@@H](C2)N3C)CC1 [Compound 51, (6-((5-chloro-2-((5-ethyl-2-methoxy-4-(4-((1R,5S)-8-methyl-3,8-diazabicyclo[3.2.1]octan-3-yl)piperidin-1-yl)phenyl)amino)pyrimidin-4-yl)amino)-2,3-dimethylphenyl)dimethylphosphine oxide]	116	146	
CCc1cc(Nc2ncc(Cl)c(Nc3ccc(C)c(C)c3P(C)(C)=O)n2)c(OC)cc1N1CCC(N2CCN(C)CC2)CC1 [Comparative Compound A, reference compound]			2010
CCc1cc(Nc2ncc(Cl)c(Nc3ccc(C)c(C)c3P(C)(C)=O)n2)c(OC)cc1N1CC2(CCN(C)CC2)C1 [Compound 24, (6-((5-Chloro-2-((5-ethyl-2-methoxy-4-(7-methyl-2,7-diazaspiro[3.5]non-2-yl)phenyl)amino)pyrimidin-4-yl)amino)-2,3-dimethylphenyl)dimethylphosphine oxide]	158	202	410
